Active and inactive are the calls of the source. The calls are words filed in the database; no cut-off is given here.
Experiments:
J774.A1 [1] = assay: Antiinflammatory activity in mouse J774.A1 cells assessed as inhibition of LPS-induced IL6 secretion at 10 uM incubated for 2 followed by LPS stimulation and measured after 22 hrs by ELISA relative to control; format: functional; conditions: for Activity: time 24.0 hrs
J774.A1 [2] = assay: Antiinflammatory activity in mouse J774.A1 cells assessed as inhibition of LPS-induced TNF-alpha secretion at 10 uM incubated for 2 followed by LPS stimulation and measured after 22 hrs by ELISA relative to control; format: functional; conditions: for Activity: time 24.0 hrs
J774.A1 [3] = assay: Cytotoxicity against mouse J774A.1 cells assessed as reduction in cell viability at 10 uM after 24 hrs by MTT assay; format: cell-based; conditions: j774.a1, 24 h
Mus musculus [4] = assay: Antiinflammatory activity against C57BL/6 mouse model of LPS-induced acute lung injury assessed as reduction in pulmonary congestion at 20 mg/kg, IG treated 0.5 hrs before LPS challenge by H and E staining based histopathological analysis; format: functional, organism-based
Mus musculus [5] = assay: Anti-inflammatory activity against C57BL/6 mouse model of LPS-induced acute lung injury assessed as reduction in TNF-alpha secretion in broncho alveolar lavage fluid at 20 mg/kg, IG treated 0.5 hrs before LPS stimulation by ELISA; format: functional, organism-based
Mus musculus [6] = assay: Antiinflammatory activity in C57BL/6 mouse model of LPS-induced acute lung injury assessed as reduction in lung wet/dry ratio at 20 mg/kg, IG administered 30 mins prior to LPS instillation; format: functional, organism-based
Mus musculus [7] = assay: Antiinflammatory activity against C57BL/6 mouse model of LPS-induced acute lung injury assessed as reduction in inflammatory infiltration at 20 mg/kg, IG treated 0.5 hrs before LPS challenge by H and E staining based histopathological analysis; format: functional, organism-based
Mus musculus [8] = assay: Anti-inflammatory activity against C57BL/6 mouse model of LPS-induced acute lung injury assessed as reduction in IL6 secretion in broncho alveolar lavage fluid at 20 mg/kg, IG treated 0.5 hrs before LPS stimulation by ELISA; format: functional, organism-based
J774.A1 [9] = assay: Antiinflammatory activity in mouse J774.A1 cells assessed as inhibition of LPS-induced IL6 secretion incubated for 2 followed by LPS stimulation and measured after 22 hrs by ELISA; format: functional, cell-based
Mus musculus [10] = assay: Antiinflammatory activity against C57BL/6 mouse model of LPS-induced acute lung injury assessed as reduction in lung tissue destruction at 20 mg/kg, IG treated 0.5 hrs before LPS challenge by H and E staining based histopathological analysis; format: functional, organism-based
Mus musculus [11] = assay: Antiinflammatory activity against C57BL/6 mouse model of LPS-induced acute lung injury assessed as reduction in interstitial edema in lung tissue at 20 mg/kg, IG treated 0.5 hrs before LPS challenge by H and E staining based histopathological analysis; format: functional, organism-based
Mus musculus [12] = assay: Antiinflammatory activity against C57BL/6 mouse model of LPS-induced acute lung injury assessed as reduction in alveolar septa thickening at 20 mg/kg, IG treated 0.5 hrs before LPS challenge by H and E staining based histopathological analysis; format: functional, organism-based
J774.A1 [13] = assay: Antiinflammatory activity in mouse J774.A1 cells assessed as inhibition of LPS-induced TNF-alpha secretion incubated for 2 followed by LPS stimulation and measured after 22 hrs by ELISA; format: functional, cell-based
Mus musculus [14] = assay: Anti-inflammatory activity against C57BL/6 mouse model of LPS-induced acute lung injury assessed as reduction in cell count in broncho alveolar lavage fluid at 20 mg/kg, IG treated 0.5 hrs before LPS stimulation by ELISA; format: functional, organism-based

Row | Structure (SMILES) | Activity (J774.A1 [1]) | Activity (J774.A1 [2]) | Activity (J774.A1 [3]) | further results
1 | O=C(/C=C/c1ccc(O)c(O)c1)c1ccc(OCCCN2CCCCC2)cc1O | Active | Active | Non-Toxic | 
2 | O=C(/C=C/c1ccc(O)c(O)c1)c1ccc([N+](=O)[O-])cc1O | Active | Active | Non-Toxic | 
3 | O=C(/C=C/c1ccc(O)c(O)c1)c1cc(OCCCN2CCCCC2)ccc1O | Active | Active | Non-Toxic | 
4 | O=C(/C=C/c1ccc(O)c(O)c1)c1cc(OCCN2CCOCC2)ccc1O | Active | Active | Non-Toxic | 
5 | O=C(/C=C/c1ccc(O)c(O)c1)c1cc(OCCCN2CCOCC2)ccc1O | Active | Active | Non-Toxic | 
6 | O=c1c(O)c(-c2ccc(O)c(O)c2)oc2ccc(Br)cc12 | Active | Active | Non-Toxic | 
7 | O=C(/C=C/c1ccc(O)c(O)c1)c1cc(Br)ccc1O | Active | Active | Non-Toxic | 
8 | O=C(/C=C/c1ccc(O)c(O)c1)c1ccc(F)cc1O | Active | Active | Non-Toxic | 
9 | O=C(/C=C/c1ccc(O)c(O)c1)c1ccc(OCCN2CCOCC2)cc1O | Active | Active | Non-Toxic | 
10 | O=C(/C=C/c1ccc(O)c(O)c1)c1cc(OCCCN2CCCC2)ccc1O | Active | Active | Non-Toxic | 
11 | O=c1c(O)c(-c2ccc(O)c(O)c2)oc2cc(Br)ccc12 | Active | Active | Non-Toxic | 
12 | O=C(/C=C/c1ccc(O)c(O)c1)c1cc(OCCN2CCCC2)ccc1O | Active | Active | Non-Toxic | 
13 | O=C(/C=C/c1ccc(O)c(O)c1)c1ccc(OCCN2CCCC2)cc1O | Active | Active | Non-Toxic | 
14 | COc1ccc(C(=O)/C=C/c2ccc(O)c(O)c2)c(O)c1 [CALYTHROPSIN] | Active | Active | Non-Toxic | 
15 | O=c1c(O)c(-c2ccc(O)c(O)c2)oc2cc(F)ccc12 | Active | Active | Non-Toxic | 
16 | O=c1c(O)c(-c2ccc(O)c(O)c2)oc2ccc(F)cc12 | Active | Active | Non-Toxic | 
17 | COc1cc(O)c(C(=O)/C=C/c2ccc(O)c(O)c2)cc1OC | Active | Active | Non-Toxic | 
18 | COc1ccc2c(=O)c(O)c(-c3ccc(O)c(O)c3)oc2c1 | Active | Active | Non-Toxic | 
19 | CN(C)CCCOc1ccc(C(=O)/C=C/c2ccc(O)c(O)c2)c(O)c1 |  |  | Non-Toxic | Activity (Mus musculus [4]): Active; Activity (Mus musculus [5]): Active; Activity (Mus musculus [6]): Active; inhibition at 10 µM (J774.A1 [1]; time 24 hrs): 89.6%; Activity (Mus musculus [7]): Active; inhibition at 10 µM (J774.A1 [2]; time 24 hrs): 76.4%; Activity (Mus musculus [8]): Active; IC50 (J774.A1 [9]; J774.A1, 22 h): 8.25 µM; inhibition (J774.A1 [9]; time 24.0 hrs): Dose-dependent effect; Activity (Mus musculus [10]): Active; Activity (Mus musculus [11]): Active; Activity (Mus musculus [12]): Active; IC50 (J774.A1 [13]; J774.A1, 22 h): 2.58 µM; inhibition (J774.A1 [13]; time 24.0 hrs): Dose-dependent effect; Activity (Mus musculus [14]): Active
20 | O=c1c(O)c(-c2ccc(O)c(O)c2)oc2cc(O)ccc12 [FISETIN] | Active | Active | Non-Toxic | Activity (Mus musculus [14]): Active
21 | CN1CCN(CCCOc2ccc(O)c(C(=O)/C=C/c3ccc(O)c(O)c3)c2)CC1 | Active | Active | Non-Toxic | 
22 | O=C(/C=C/c1ccc(O)c(O)c1)c1ccc(OCCCN2CCOCC2)cc1O | Active | Active | Non-Toxic | 
23 | O=C(/C=C/c1ccc(O)c(O)c1)c1ccc(OCCCN2CCCC2)cc1O | Active | Active | Non-Toxic | 
24 | O=C(/C=C/c1ccc(O)c(O)c1)c1cc(F)ccc1O | Active | Active | Non-Toxic | 
25 | O=C(/C=C/c1ccc(O)c(O)c1)c1ccc(Br)cc1O | Active | Active | Non-Toxic | 
26 | CN(C)CCCOc1ccc(O)c(C(=O)/C=C/c2ccc(O)c(O)c2)c1 | Active | Active | Non-Toxic | 

Reference: ChEMBL document CHEMBL5055655, “Design, synthesis and bioactivity evaluation of fisetin derivatives as potential anti-inflammatory agents against LPS-induced acute lung injury” (Bioorg Med Chem, 2021)
